According to patent US20210113602A1, “USE OF 6-THIO-2'-DEOXYGUANOSINE (6-THIO-dG) TO TREAT MELANOMA” (The Board of Regents of the University of Texas System, priority 2018, published 2021):
Entries after “also recorded” stand apart in the source; their conditions may differ.

What was measured:
[1] = test system: non-transformed primary human fibroblasts; experiment: Cell viability, Alamar Blue assay; format: cell-based; conditions: 7 days; telomerase negative cells
Experimental: (§1) FIGS. 2a-h. […] (FIGS. 2a-c) NRASmut melanoma cells (FIG. 2a), BRAF-V600E/NRAS mutant cells derived from melanoma patients resistant to BRAF/MEK inhibitors (FIG. 2b), or non-transformed melanocytes and fibroblasts (FIG. 2c) were treated with 6-thio-dG for 7 days. Cell viability was measured by Alamar Blue assay and calculated relative to DMSO-treated cells. (FIG. 2d) NRASmut melanoma cells and non-transformed human fibroblasts were treated with 1 or 5 μM 6-thio-dG for 7 or 14 days. Cell death was assessed by PSVUe staining. Percent of apoptotic cells is shown. (FIG. 2e) Cells were treated with DMSO or 1 μM 6-thio-dG for 14 days and telomere length was assessed by Southern blotting of TRF. Mean TRF length expressed as kilobase pairs is indicated at the bottom. (FIGS. 2f-g) Cells were treated with 1 μM 6-thio-dG for 7 days. (FIG. 2f) ROS production was measured by H2DCFDA fluorescence and normalized to MSO treated cells. (FIG. 2g) DNA damage was assessed by γH2AX staining. […] Tumor volume was measured and average tumor volume (n=4)±SEM was plotted vs. time.
(§2) Cell culture, viability and cell death assays. […] Cell viability was assessed following 6 hr incubation with 500 μM Alamar Blue (ThermoFisher Scientific, Waltham, Mass.) using an EnVision Xcite Multilabel plate reader (Perkin Elmer, Waltham, Mass.). […]

[2] = test system: non-transformed primary human melanocytes; experiment: Cell viability, Alamar Blue assay; format: cell-based; conditions: 7 days; telomerase negative cells
Experimental: as §1, §2

[3] = test system: NRAS-WT/BRAF-WT melanoma cells; experiment: Cell death, Annexin V/PI; format: cell-based, human; conditions: single agents or combination; 1 μM 6-thio-dG, 5 μM Gam
[4] = test system: NRAS mutant melanoma cells; experiment: Cell viability, Alamar Blue assay; format: cell-based, human; conditions: 7 days; relative to DMSO-treated cells
Experimental: as §1, §2

[5] = test system: BRAF-V600E/NRAS mutant cells derived from melanoma patients resistant to BRAF/MEK inhibitors; experiment: Cell viability, Alamar Blue assay; format: cell-based, human; conditions: 7 days; relative to DMSO-treated cells
Experimental: as §1, §2

[6] = test system: NRAS mutant melanoma cells; experiment: Relative cell number, Crystal Violet assay; format: cell-based, human; conditions: 6, 12 or 18 days; relative to DMSO
Experimental: Supplementary FIGS. 8a-d. NRAS mutant melanoma cells are sensitive to the telomere uncapping agent 6-thio-dG. NRAS^mut melanoma cells were treated with 6-thio-dG for 6, 12 or 18 days. (Supplementary FIG. 8a) Relative cell number was assessed by […] Violet assay and calculated relative to DMSO-treated cells. Data represent average of three independent experiments +/-SD. (Supplementary FIG. 8b) Representative pictures of cells treated with 6-thio-dG for the indicated days and stained with Crystal Violet. (Supplementary FIG. 8c) NRAS^mut cells were treated with 6-thio-dG for 7 days and telomere-induced foci (TIF) were determined by indirect immunofluorescence combined with fluorescence in situ hybridization (FISH). Cells were considered TIF-positive when for or more co-localizing foci of telomeres and γ-H2AX were found. (Supplementary FIG. 8d) Quantification of TIF assay. Cells were scored as TIF-positive when four or more γ-H2AX foci (green) were co-localizing with telomere foci (red). Data represent average of […]. P values were calculated by unpaired Student's t-test.

[7] = test system: NRAS mutant melanoma cells; experiment: Cell death by flow cytometry (PSVue or Annexin V/PI); format: cell-based
Experimental: (FIG. 2d) NRASmut melanoma cells and non-transformed human fibroblasts were treated with 1 or 5 μM 6-thio-dG for 7 or 14 days. Cell death was assessed by PSVUe staining. Percent of apoptotic cells is shown. […] (FIGS. 2f-g) Cells were treated with 1 μM 6-thio-dG for 7 days. […] Data represent average from three independent experiments±SEM. *p<0.05; **p<0.01; ***p<0.005 in unpaired Student's t-test.
(FIG. 4a) NRASmut melanoma cells transduced with TERT shRNA were treated 7 days post infection with 5 μM Gamitrinib (Gam) for 48 h. Cell death was assessed by Annexin V and PI staining. (FIG. 4b) NRASmut melanoma cells and non-transformed fibroblasts were treated with 1 μM 6-thio-dG for 5 days. At day 5, culture medium was replaced and cells treated with 1 μM 6-thio-dG plus 5 μM Gam for two more days. Cells were stained with Annexin V and PI and percent cell death was determined by flow cytometry. […] Data represent average of three independent experiments ±SEM. P values were calculated using unpaired Student's t-test; * p<0.05; ***p<0.005.
(Supplementary FIG. 10a) NRASmut melanoma cells were treated with 6-thio-dG (1 μ) for 7 days total. At day 5, culture medium was replaced and cells were treated with 1 μM 6-thio-dG plus 1 mM Phenformin for two more days. Percent cell death was determined by flow cytometry following staining of cells with Annexin V and Propidium iodide. Data represent average of three independent experiments +/−SEM. *p<0.05 in unpaired Student's t-test.

[8] = test system: detoxifying enzymes such as SOD2, GPX1 and UCP2; experiment: mRNA levels of detoxifying enzymes by qRT-PCR; format: cell-based, human; conditions: 1 μM 6-thio-dG for 7 days
Experimental: FIGS. 3a-g. Telomere dysfunction enhances oxidative stress leading to upregulation of an antioxidant program. (FIGS. 3a-d) NRASmut melanoma cells were transduced with TERT shRNA (FIG. 3a, FIG. 3c) or treated with 1 μM 6-thio-dG for 7 days (FIG. 3b, FIG. 3d). mRNA levels of the indicated genes were quantified by qRT-PCR (FIG. 3a, FIG. 3b). Mitochondrial superoxide production was measured by MitoSox Red fluorescence (FIG. 3c, FIG. 3d) and expressed as fluorescence relative to vector or DMSO controls. (FIG. 3e) NRASmut melanoma cells were treated with 1 μM of 6-thio-dG for the indicated times and SOD2 protein levels measured by Western blotting. (FIG. 3f) SOD2 was silenced using shRNA. Transduced M93-047 cells were treated with DMSO or 1 μM of 6-thio-dG and cell death was assessed by Annexin V/PI straining. (FIG. 3g) M93-047 cells were transduced with a SOD2 lentiviral construct or empty vector control (pLX304). Transduced cells were treated with increasing doses (1, 2.5 and 5 μM) of 6-thio-dG for 7 days and cell death was assessed. Data represent average from three independent experiments±SEM. *p<0.05; **p<0.01; ***p<0.005 in unpaired Student's t-test.

## Nc1nc2c(ncn2[C@H]2C[C@H](O)[C@@H](CO)O2)c(=S)[nH]1 [6-thio-dG, 6-thio-2′-deoxy-guanosine]
[1]
  cell viability: did not significantly affect
[2]
  cell viability: did not significantly affect
[3]
  cell death: did not induce cell death
[4]
  cell viability: impairs viability; also recorded: impaired the viability
[5]
  cell viability: impaired the viability
[6]
  relative cell number (sensitivity): sensitive
[7]; 1 or 5 μM for 7 or 14 days, PSVue staining
  cell death: led to cell death
[7]; SOD2 lentiviral construct, 1, 2.5 and 5 μM 6-thio-dG
  apoptosis in SOD2 overexpressing cells: attenuated the apoptosis-inducing effects
[7]; SOD2 shRNA, 1 μM 6-thio-dG, M93-047, WM3000
  apoptosis in SOD2 depleted cells: enhanced the ability of 6-thio-dG to induce apoptosis
[8]
  GPX1 expression: upregulation
  SOD2 expression: upregulation
  UCP2 expression: upregulation
